Test results as given in the NIST ThermoML archive (doi:10.1016/j.jct.2016.01.012).

Assay: xn = mol fraction of the nth substance listed
Details: 100 kPa, Liquid; for viscosity: Falling or rolling sphere viscometry; for mass density: Vibrating tube method; for electrical conductivity: Direct current cell with electrodes

CN(C)C(=[NH2+])N(C)C.c1c[n-]cn1 [1,1,3,3-tetramethylguanidinium imidazol-1-ide] + O
Details	electrical conductivity [S/m]	mass density [kg/m3]	viscosity [mPa·s]
293.15 K, x1 = 0.0511	–	1023.04	3.157
293.15 K, x1 = 0.0991	–	1024.53	5.561
293.15 K, x1 = 0.207	–	1025.54	10.23
293.15 K, x1 = 0.3005	–	1019.92	14.29
293.15 K, x1 = 0.3834	–	1015.77	15.79
293.15 K, x1 = 0.4978	–	1010.24	16.03
293.15 K, x1 = 0.6356	–	1005.44	14.5
293.15 K, x1 = 0.8019	–	1001.45	12.12
293.15 K, x1 = 0.8984	–	999.17	10.19
293.15 K, x1 = 1	–	997.25	8.952
298.15 K, x1 = 0.002	1.524	–	–
298.15 K, x1 = 0.003	1.88	–	–
298.15 K, x1 = 0.0039	2.47	–	–
298.15 K, x1 = 0.005	2.88	–	–
298.15 K, x1 = 0.006	3.19	–	–
298.15 K, x1 = 0.008	3.36	–	–
298.15 K, x1 = 0.01	3.67	–	–
298.15 K, x1 = 0.0149	3.96	–	–
298.15 K, x1 = 0.0199	3.93	–	–
298.15 K, x1 = 0.0299	3.72	–	–
298.15 K, x1 = 0.0398	3.22	–	–
298.15 K, x1 = 0.0499	2.7	–	–
298.15 K, x1 = 0.0511	–	1019.97	2.519
298.15 K, x1 = 0.0599	2.31	–	–
298.15 K, x1 = 0.0699	1.97	–	–
298.15 K, x1 = 0.0799	1.711	–	–
298.15 K, x1 = 0.0893	1.517	–	–
298.15 K, x1 = 0.0991	–	1020.57	4.311
298.15 K, x1 = 0.0996	1.31	–	–
298.15 K, x1 = 0.1495	0.767	–	–
298.15 K, x1 = 0.1994	0.53	–	–
298.15 K, x1 = 0.207	–	1021.21	7.645
298.15 K, x1 = 0.3005	–	1015.51	11.07
298.15 K, x1 = 0.3504	0.272	–	–
298.15 K, x1 = 0.3834	–	1011.35	12.14
298.15 K, x1 = 0.4978	–	1005.81	12.35
298.15 K, x1 = 0.4989	0.215	–	–
298.15 K, x1 = 0.6356	–	1001	11.28
298.15 K, x1 = 0.6512	0.195	–	–
298.15 K, x1 = 0.8019	–	997.07	9.561
298.15 K, x1 = 0.8447	0.205	–	–
298.15 K, x1 = 0.8984	–	994.72	8.186
298.15 K, x1 = 1	0.218	992.8	7.287
303.15 K, x1 = 0.0511	–	–	2.148
303.15 K, x1 = 0.0991	–	–	3.601
303.15 K, x1 = 0.207	–	–	6.045
